Where “and” joins values, the source holds several entries; their conditions need not be identical. Identical values can stand only once. Inconclusive results and toxic doses are left out.
System: BDF1 mice, P388 leukemia ip, median survival T/C
Test: NCI In Vivo Anticancer Drug Screen. Data for tumor model P388 Leukemia (intraperitoneal) in B6D2F1 (BDF1) mice
Settings: endpoint: median survival time, higher = longer survival
In short: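 Read-out is survival of treated animals expressed relative to the vehicle group, as a T/C ratio.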

[1] = dose: 25.0 mg/kg/injection, schedule: Q01DX009 (ip), vehicle: saline with Tween-80
[2] = dose: 25.0 mg/kg/injection, schedule: Q01DX009 (ip), vehicle: saline
[3] = dose: 50.0 mg/kg/injection, schedule: Q01DX009 (ip), vehicle: water
[4] = dose: 50.0 mg/kg/injection, schedule: Q04DX003 (ip), vehicle: water
[5] = dose: 100.0 mg/kg/injection, schedule: Q01DX009 (ip), vehicle: water
[6] = dose: 100.0 mg/kg/injection, schedule: Q04DX003 (ip), vehicle: water
[7] = dose: 200.0 mg/kg/injection, schedule: Q01DX009 (ip), vehicle: water
[8] = dose: 200.0 mg/kg/injection, schedule: Q01DX009 (ip), vehicle: saline with Tween-80
[9] = dose: 100.0 mg/kg/injection, schedule: Q01DX009 (ip), vehicle: Klucel (hydroxypropylcellulose) (HPC)
[10] = dose: 100.0 mg/kg/injection, schedule: Q04DX003 (ip), vehicle: Klucel (hydroxypropylcellulose) (HPC)
[11] = dose: 200.0 mg/kg/injection, schedule: Q04DX003 (ip), vehicle: Klucel (hydroxypropylcellulose) (HPC)
[12] = dose: 400.0 mg/kg/injection, schedule: Q04DX003 (ip), vehicle: Klucel (hydroxypropylcellulose) (HPC)
[13] = dose: 50.0 mg/kg/injection, schedule: Q01DX009 (ip), vehicle: saline with Tween-80
[14] = dose: 100.0 mg/kg/injection, schedule: Q01DX009 (ip), vehicle: saline with Tween-80

S=C(c1ccco1)N1CCOCC1
T/C (dose: 37.5 mg/kg/injection, schedule: Q01DX009 (ip), vehicle: saline with Tween-80): 100 % of control
T/C (dose: 75.0 mg/kg/injection, schedule: Q01DX009 (ip), vehicle: saline with Tween-80): 104 % of control
T/C (dose: 150.0 mg/kg/injection, schedule: Q01DX009 (ip), vehicle: saline with Tween-80): 118 % of control

CCCCC(CC)COP(=O)(CC(CC)CCCC)OCC(CC)CCCC (stereo not drawn)
T/C [1]: 100 % of control

COc1cccc(C)c1NC1=NCCO1
T/C (dose: 1.56 mg/kg/injection, schedule: Q04DX003 (ip), vehicle: saline with Tween-80): 117 % of control

CCOC(=O)Nc1cc(NC(C)CCCN(CC)CC)c2ncc(-c3ccc(Cl)c(Cl)c3)nc2n1 (stereo not drawn) (tested in a mixture with another compound)
T/C (dose: 6.25 mg/kg/injection, schedule: Q01DX009 (ip), vehicle: saline): 109 % of control
T/C (dose: 6.25 mg/kg/injection, schedule: Q04DX003 (ip), vehicle: saline): 95 % of control
T/C (dose: 12.5 mg/kg/injection, schedule: Q01DX009 (ip), vehicle: saline): 100 % of control
T/C (dose: 12.5 mg/kg/injection, schedule: Q04DX003 (ip), vehicle: saline): 95 % of control
T/C [2]: 104 % of control
T/C (dose: 25.0 mg/kg/injection, schedule: Q04DX003 (ip), vehicle: saline): 104 % of control

COc1ccc(C(=O)/C=C/c2ccc(OCc3ccccc3)c(OC)c2)cc1OC
T/C [3]: 111 % of control
T/C [4]: 101 % of control
T/C [5]: 114 % of control
T/C [6]: 94 % of control
T/C [7]: 104 % of control
T/C (dose: 200.0 mg/kg/injection, schedule: Q04DX003 (ip), vehicle: water): 102 % of control
T/C (dose: 400.0 mg/kg/injection, schedule: Q01DX009 (ip), vehicle: water): 114 % of control
T/C (dose: 400.0 mg/kg/injection, schedule: Q04DX003 (ip), vehicle: water): 100 % of control

O=C(N=c1cc(-c2ccc(Cl)cc2)ss1)C(Cc1ccccc1)N1C(=O)c2ccccc2C1=O (stereo not drawn)
T/C (dose: 6.25 mg/kg/injection, schedule: Q01DX009 (ip), vehicle: water): 101 % of control
T/C (dose: 6.25 mg/kg/injection, schedule: Q04DX003 (ip), vehicle: water): 110 % of control
T/C (dose: 12.5 mg/kg/injection, schedule: Q01DX009 (ip), vehicle: water): 104 % of control
T/C (dose: 12.5 mg/kg/injection, schedule: Q04DX003 (ip), vehicle: water): 100 % of control
T/C (dose: 25.0 mg/kg/injection, schedule: Q01DX009 (ip), vehicle: water): 108 % of control
T/C (dose: 25.0 mg/kg/injection, schedule: Q04DX003 (ip), vehicle: water): 110 % of control
T/C [3]: 104 % of control
T/C [4]: 104 % of control
T/C [5]: 108 % of control
T/C [6]: 107 % of control
T/C [7]: 108 % of control

CC1OC(OC2C(=O)c3c(O)cc(O)cc3OC2c2ccc(O)c(O)c2)C(O)C(O)C1O (stereo not drawn)
T/C (dose: 25.0 mg/kg/injection, schedule: Q01DX009 (ip), vehicle: alcohol): 100 % of control
T/C (dose: 50.0 mg/kg/injection, schedule: Q01DX009 (ip), vehicle: alcohol): 96 % of control
T/C (dose: 100.0 mg/kg/injection, schedule: Q01DX009 (ip), vehicle: alcohol): 92 % of control
T/C (dose: 200.0 mg/kg/injection, schedule: Q01DX009 (ip), vehicle: alcohol): 106 % of control
T/C [8]: 115 % of control
T/C (dose: 300.0 mg/kg/injection, schedule: Q01DX009 (ip), vehicle: saline with Tween-80): 90 % of control
T/C (dose: 455.0 mg/kg/injection, schedule: Q01DX009 (ip), vehicle: saline with Tween-80): 99 % of control

CC1(C)CC(=O)C2OC2(C)C1 (stereo not drawn)
T/C [9]: 100 % of control
T/C [10]: 104 % of control
T/C (dose: 200.0 mg/kg/injection, schedule: Q01DX009 (ip), vehicle: Klucel (hydroxypropylcellulose) (HPC)): 90 % of control
T/C [11]: 95 % of control
T/C (dose: 400.0 mg/kg/injection, schedule: Q01DX009 (ip), vehicle: Klucel (hydroxypropylcellulose) (HPC)): 109 % of control
T/C [12]: 108 % of control

CCOC(=O)Nc1ccc(/C=C\c2ccnc3ccccc23)cc1
T/C (dose: 12.5 mg/kg/injection, schedule: Q01DX009 (ip), vehicle: saline with Tween-80): 106 % of control
T/C [1]: 115 % of control
T/C [13]: 92 % of control and 94 % of control

CNC(=O)Oc1coc(CCl)cc1=O
T/C (dose: 12.0 mg/kg/injection, schedule: Q01DX009 (ip), vehicle: Klucel (hydroxypropylcellulose) (HPC)): 95 % of control
T/C (dose: 16.5 mg/kg/injection, schedule: Q01DX009 (ip), vehicle: saline): 108 % of control
T/C (dose: 18.0 mg/kg/injection, schedule: Q01DX009 (ip), vehicle: Klucel (hydroxypropylcellulose) (HPC)): 86 % of control
T/C [2]: 120 % of control
T/C (dose: 27.0 mg/kg/injection, schedule: Q01DX009 (ip), vehicle: Klucel (hydroxypropylcellulose) (HPC)): 100 % of control
T/C (dose: 37.5 mg/kg/injection, schedule: Q01DX009 (ip), vehicle: saline): 116 % of control
T/C (dose: 40.0 mg/kg/injection, schedule: Q01DX009 (ip), vehicle: Klucel (hydroxypropylcellulose) (HPC)): 118 % of control
T/C (dose: 60.0 mg/kg/injection, schedule: Q01DX009 (ip), vehicle: Klucel (hydroxypropylcellulose) (HPC)): 118 % of control

CCN(CC)C(=O)COc1cc2c(O)c3c(O)c(C)c4c(c13)C(=O)C(C)(OC=CC(OC)C(C)C(OC(C)=O)C(C)C(O)C(C)C(O)C(C)C=CC=C(C)C(=O)N2)O4 (stereo not drawn)
T/C (dose: 50.0 mg/kg/injection, schedule: Q01DX009 (ip), vehicle: saline): 109 % of control
T/C (dose: 100.0 mg/kg/injection, schedule: Q01DX009 (ip), vehicle: saline): 109 % of control
T/C (dose: 200.0 mg/kg/injection, schedule: Q01DX009 (ip), vehicle: saline): 123 % of control

COc1cc(NS(=O)(=O)c2ccccc2)ccc1C
T/C (dose: 25.0 mg/kg/injection, schedule: Q01DX009 (ip), vehicle: Klucel (hydroxypropylcellulose) (HPC)): 100 % of control
T/C (dose: 50.0 mg/kg/injection, schedule: Q01DX009 (ip), vehicle: Klucel (hydroxypropylcellulose) (HPC)): 100 % of control
T/C [9]: 89 % of control and 110 % of control
T/C [10]: 104 % of control
T/C [11]: 95 % of control
T/C [12]: 95 % of control

CC(=O)CC(=O)Nc1ccccn1
T/C [1]: 95 % of control
T/C [13]: 92 % of control
T/C [14]: 98 % of control
T/C [8]: 104 % of control

C[C@H]1CN1C1=CC(=O)C(N2C[C@@H]2C)=CC1=O
T/C (dose: 0.03 mg/kg/injection, schedule: Q01DX009 (ip), vehicle: saline): 109 % of control
T/C (dose: 0.12 mg/kg/injection, schedule: Q01DX009 (ip), vehicle: saline): 118 % of control
T/C (dose: 0.5 mg/kg/injection, schedule: Q01DX009 (ip), vehicle: Klucel (hydroxypropylcellulose) (HPC)): 160 % of control
T/C (dose: 0.5 mg/kg/injection, schedule: Q01DX009 (ip), vehicle: saline): 191 % of control
T/C (dose: 1.0 mg/kg/injection, schedule: Q01DX009 (ip), vehicle: Klucel (hydroxypropylcellulose) (HPC)): 160 % of control
T/C (dose: 1.0 mg/kg/injection, schedule: Q01DX009 (ip), vehicle: saline): 220 % of control
T/C (dose: 2.0 mg/kg/injection, schedule: Q01DX009 (ip), vehicle: Klucel (hydroxypropylcellulose) (HPC)): 200 % of control
T/C (dose: 4.0 mg/kg/injection, schedule: Q01DX009 (ip), vehicle: Klucel (hydroxypropylcellulose) (HPC)): 190 % of control

CCSC1(SCC)C(=O)OC2=C(CCCC2)C1N(C)C (stereo not drawn)
T/C [13]: 90 % of control
T/C [14]: 103 % of control
T/C [8]: 105 % of control

Cc1cc2c(cc1C)C(O)C(N1CCN(C)CC1)CCC2 (stereo not drawn)
T/C (dose: 50.0 mg/kg/injection, schedule: Q04DX003 (ip), vehicle: saline with Tween-80): 109 % of control
T/C (dose: 100.0 mg/kg/injection, schedule: Q04DX003 (ip), vehicle: saline with Tween-80): 100 % of control
T/C (dose: 200.0 mg/kg/injection, schedule: Q04DX003 (ip), vehicle: saline with Tween-80): 100 % of control

N#C/C(=C\c1ccncc1)c1csc2ccccc12
T/C (dose: 50.0 mg/kg/injection, schedule: Q01DX011 (ip), vehicle: Klucel (hydroxypropylcellulose) (HPC)): 111 % of control
T/C (dose: 100.0 mg/kg/injection, schedule: Q01DX011 (ip), vehicle: Klucel (hydroxypropylcellulose) (HPC)): 107 % of control
T/C (dose: 200.0 mg/kg/injection, schedule: Q01DX011 (ip), vehicle: Klucel (hydroxypropylcellulose) (HPC)): 107 % of control
T/C (dose: 400.0 mg/kg/injection, schedule: Q01DX011 (ip), vehicle: Klucel (hydroxypropylcellulose) (HPC)): 89 % of control

Cc1csc(NC(O)C(Cl)(Cl)Cl)n1 (stereo not drawn)
T/C [13]: 98 % of control
T/C [14]: 106 % of control
T/C [8]: 101 % of control

From PubChem BioAssay AID328 (DTP/NCI, 2004)
